This is an account of results in US20210379147A1, “METHOD AND SYSTEM FOR TREATING CANCER UTILIZING TINAGL1” (The Trustees of Princeton University, priority 2018, published 2021).

Experiment [1] deals with primary tumors and lung metastases. Put plainly: IHC staining of tumor samples from treatment groups (Ki67, Casp3, CD31, α-SMA). Type of experiment: in vivo, NSG female mice. The following applies: for tumor cell proliferation (Ki67 staining): primary tumor and lung metastatic nodules. As to the method:
FIGS. 17F-17I are graphs quantifying positives cells per field where primary tumors were collected from indicated treatment groups from FIG. 17D and then subjected to IHC staining with indicated antibodies, including % Ki67^+ (17F), % Casp3^+ (17G), % CD31^+ (17H), and % α-SMA^+ (17I).
TIC staining was performed as previously described (Wan et al., 2014). Briefly, Paraffin-embedded primary tumor or lung samples were sliced into 4 μm thickness. The slides were baked overnight at 60° C. Next, the tissue slides were washed with PBS after deparaffinization and hydration and then boiled in citrate buffer at 100° C. for 40 min. After treated with 3% H2O2 for 30 min to block endogenous peroxidase, slides were incubated at 4° C. overnight with Ki67 (Leica Biosystem, Ki67-MM1-L-CE-S), cleaved caspase-3 (Cell signaling, 9661S), p-EGFR (Cell signaling, 3777), p-FAK (Cell signaling, 8556), CD31 (Cell signaling, 77699), -SMA (Sigma, A5228), or Tinagl1 (Sigma, HPA048695) antibodies. Following washes with PBS, slides were then incubated with HRP-conjugated goat anti-rabbit or mouse secondary antibody (Genetech) for 30 min at room temperature. Sections were stained by DAB and then counterstained with Gill hematoxylin according to manufacturer's instructions.

In another experiment the test system is LM2 cells. Put plainly: LM2 orthotopic tumors, single or combined agent treatment. The settings on record: for spontaneous lung metastasis: LM2 tumors, ex vivo BLI at endpoint. The class given is in vivo, NSG female mice. The protocol: FIG. 17A is an image of WB analyses where NSG female mice were injected with 10^4 LM2 cells by MFP injection, and intravenously treated with the indicated reagents twice per week when tumors reached to 2 mm in dimeter, then after 5 weeks of the treatments, the primary tumors of each group were collected and activation of EGFR and FAK in primary tumor of each group were tested by WB.
FIG. 17B is a graph illustrating tumor volumes of each treatment group from FIG. 17A.
FIG. 17C is a graph, quantifying ex vivo BLI results where lungs in mice from FIG. 17A were collected and spontaneous metastasis was examined at the endpoint.
Two molecular targeting reagents, ATN-161 (ATN) and Erlotinib (Erlo) were employed. ATN is an integrin α5β1 antagonist that inhibits the integrin signaling pathway and slows tumor progression. Erlotinib is a well-established small molecular inhibitor of EGFR and is clinically approved for cancer treatment. Mice orthotopically implanted with LM2 cells were split into 6 groups after the tumors reached 2 mm in diameter and subjected to various single or combined agent treatments twice per week [(1) PBS; (2) ATN 30 μg/mouse; (3) Erlo 100 mg/kg; (4) r-Tinagl1 30 μg/mouse; (5) ATN and Erlo; and (6) ATN, Erlo, and r-Tinagl1]. Referring to FIG. 17A, the inhibition of integrin/FAK and EGFR upon each treatment was validated by western blotting and TIC staining.
(§1) For xenograft studies, 8-weeks immunocompromised NOD Scid Gamma (NSG) or immunocompetent FVB females were used. Cells were suspended in 10 μl of PBS for mammary gland injection (MFP), or were suspended in 100 μl of PBS for intravenous injection. For human patient-derived xenograft (PDX, HCL001, kindly provided by Dr. Alana Welm) study, we followed the standard protocol for PDX transplantation, maintenance and digestion of the tumors (DeRose et al., 2011). 2×10^4 cells were suspended in 10 μl of PBS and subjected to MFP injection. For recombinant Tinagl1 (r-Tinagl1), ATN-161, Erlotinib treatments, the mice were injected with 30 μg/mouse, 30 μg/mouse, and 100 mg/kg respectively twice per week via tail-vein. Primary tumors were quantified once per week via caliper measurement. All cell lines used for lung metastasis experiments were stably labeled with a firefly luciferase expressing vector and were monitored by weekly bioluminescent imaging (BLI). At protocol-defined endpoints, lungs were dissected and fixed in bouin's solution and the metastatic lesions were counted.

The subject of a further experiment is SUM159-M1a. Put plainly: SUM159-M1a orthotopic tumors, single or combined agent treatment. Type of experiment: in vivo, NSG female mice. The following applies: SUM159-M1a model. As to the method: FIG. 17D is an image of WB analyses where NSG female mice were injected with 10^4 M1a cells by MFP injection, and treated with the indicated reagents twice per week when tumors reached to 2 mm in diameter, then after 5 weeks of the treatments, the primary tumors of each group were collected and activation of EGFR and FAK in primary tumor of each group was tested by WB.
FIG. 17E is a graph illustrating tumor volumes of each treatment group from FIG. 17D.
as §1, with “For recombinant Tinagl1 (r-Tinagl1), ATN-161, Erlotinib treatments, the mice were injected with 30 μg/mouse, 30 μg/mouse, and 100 mg/kg respectively twice per week via tail-vein.” left out

For another experiment, the target named is T1, human EGFR-GFP (human, UniProt P00533 25-1210).
T1 construct: Printed both as GFP-EGFR and EGFR-GFP; the order of the two pieces is not certain; Expressed in HEK293T or LM2 cells, assayed in lysate; also called GFP-EGFR; not shown: GFP
Put plainly: competition co-IP in lysate of HEK293T cells co-expressing Tinagl1-HA and GFP-EGFR; competitor of Tinagl1-HA.

The target of experiment [2] is T2, mutant integrin β1 subunit (β1-M) with deletion of aa 130-240 (human, UniProt P05556 21-798).
T2 construct: Overexpressed in HEK293T cells, assayed in lysate; said to be still localized to the cell surface; also called β1-mutant; integrin subunit β1-Δ130-240aa
T2 sequence (P05556 other isoform, or with tags, fused parts or gaps mutant): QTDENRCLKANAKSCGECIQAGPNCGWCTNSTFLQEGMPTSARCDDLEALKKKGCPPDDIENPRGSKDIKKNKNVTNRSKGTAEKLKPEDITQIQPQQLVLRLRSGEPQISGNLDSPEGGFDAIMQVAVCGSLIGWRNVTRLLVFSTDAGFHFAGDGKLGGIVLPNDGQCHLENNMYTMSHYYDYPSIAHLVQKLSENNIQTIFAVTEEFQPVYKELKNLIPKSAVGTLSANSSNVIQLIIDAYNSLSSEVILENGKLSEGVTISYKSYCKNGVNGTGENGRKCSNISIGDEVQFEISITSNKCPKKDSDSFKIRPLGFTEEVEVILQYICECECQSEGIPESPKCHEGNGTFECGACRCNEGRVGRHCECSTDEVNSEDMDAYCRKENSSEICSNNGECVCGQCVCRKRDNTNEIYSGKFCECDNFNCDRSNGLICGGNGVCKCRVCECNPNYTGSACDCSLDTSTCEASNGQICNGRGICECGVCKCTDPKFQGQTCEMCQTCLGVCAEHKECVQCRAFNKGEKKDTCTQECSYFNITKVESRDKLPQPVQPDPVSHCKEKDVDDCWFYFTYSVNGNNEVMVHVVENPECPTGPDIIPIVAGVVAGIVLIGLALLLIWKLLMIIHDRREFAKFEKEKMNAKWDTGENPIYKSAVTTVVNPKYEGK
Put plainly: IP and WB from HEK293T cells overexpressing β1-M and Tinagl1-HA.
Procedure: Immunoprecipitation (IP) and western blotting (WB) analysis. For an IP experiment, cells were collected in 1.5 ml EP tube when they reached to 100% confluency in 10 or 15 cm dish as indicated. […] Meanwhile, culture media was 100× concentrated and mixed with the cell lysates. The samples were centrifuged, 100 μl of the supernatant was transferred to a new tube as input, and the rest was incubated with 2 μg of IgG, anti-HA, anti-Myc, anti-Integrin subunit β1, anti-Integrin subunit α5 or anti-EGFR (as indicated in each experiment) overnight at 4° C. (recombinant proteins may be added at this step as indicated in each experiment). […] The beads were then washed for 5 times with IP lysis buffer. After final spin, the beads were boiled with 50 μl of 1×SDS Laemmli buffer for 5 min, and the samples were subjected to western blotting (WB). […] 100 μl of combined solution was transferred to a new tube and served as input. The rest was split into two tubes and IP with 2 μg of IgG or His antibody respectively. The IP samples were washed with PBS and analyzed with WB.

Take `C#Cc1cccc(Nc2ncnc3cc(OCCOC)c(OCCOC)cc23)c1` [Erlotinib]: the “CD31+ endothelium” value in experiment [1] (primary and lung metastasis) was “significantly reduced”. The “tumor cell proliferation (Ki67 staining)” value in experiment [1] is “inhibited tumor cell proliferation in lung metastatic nodules but not primary sites”. Moreover, the primary tumor growth entry in the experiment on LM2 cells (LM2, twice per week, ATN 30 μg/mouse, Erlo 100 mg/kg, r-Tinagl1 30 μg/mouse) is reported as “trended toward reducing primary tumor growth but did not reach statistical significance”. Also, in the experiment on LM2 cells, the spontaneous lung metastasis result is recorded as “reduced spontaneous lung metastasis”. In addition, in the experiment on SUM159-M1a, the lung metastasis result is “reduced lung metastasis”.

As to ATN-161, in experiment [1], the “tumor cell proliferation (Ki67 staining)” value is “suppressed proliferation in primary tumor but not lung metastatic nodules”. In addition, the spontaneous lung metastasis entry in the experiment with LM2 cells was “no reduction was observed”.

B1: full length recombinant human Tinagl1 with 6xHis tag at the C-terminus (r-Tinagl1) (other)
chain: AQQGRGRRELAPGLHLRGIRDAGGRYCQEQDLCCRGRADDCALPYLGAICYCDLFCNRTVSDCCPDFWDFCLGVPPPFPPIQGCMHGGRIYPVLGTYWDNCNRCTCQENRQWQCDQEPCLVDPDMIKAINQGNYGWQAGNHSAFWGMTLDEGIRYRLGTIRPSSSVMNMHEIYTVLNPGEVLPTAFEASEKWPNLIHEPLDQGNCAGSWAFSTAAVASDRVSIHSLGHMTPVLSPQNLLSCDTHQQQGCRGGRLDGAWWFLRRRGVVSDHCYPFSGRERDEAGPAPPCMMHSRAMGRGKRQATAHCPNSYVNNNDIYQVTPVYRLGSNDKEIMKELMENGPVQALMEVHEDFFLYKGGIYSHTPVSLGRPERYRRHGTHSVKITGWGEETLPDGRTLKYWTAANSWGPAWGERGHFRIVRGVNECDIESFVLGVWGRVGMEDMGHHVDHHHHHH
notes: also called r-Tiangl1; recombinant Tinagl1 protein
With B1, the binding result with human EGFR-GFP is given as “binds”.

B2: C-terminal HA tagged Tinagl1 (Tinagl1-HA) (other)
chain: AQQGRGRRELAPGLHLRGIRDAGGRYCQEQDLCCRGRADDCALPYLGAICYCDLFCNRTVSDCCPDFWDFCLGVPPPFPPIQGCMHGGRIYPVLGTYWDNCNRCTCQENRQWQCDQEPCLVDPDMIKAINQGNYGWQAGNHSAFWGMTLDEGIRYRLGTIRPSSSVMNMHEIYTVLNPGEVLPTAFEASEKWPNLIHEPLDQGNCAGSWAFSTAAVASDRVSIHSLGHMTPVLSPQNLLSCDTHQQQGCRGGRLDGAWWFLRRRGVVSDHCYPFSGRERDEAGPAPPCMMHSRAMGRGKRQATAHCPNSYVNNNDIYQVTPVYRLGSNDKEIMKELMENGPVQALMEVHEDFFLYKGGIYSHTPVSLGRPERYRRHGTHSVKITGWGEETLPDGRTLKYWTAANSWGPAWGERGHFRIVRGVNECDIESFVLGVWGRVGMEDMGHH
notes: Expressed in LM2 or HEK293T cells; assayed in cell lysate mixed with concentrated culture media; also called Tiangl1-HA; not shown: human influenza hemagglutinin (HA) tag fused to the C-terminal
Take B2: the binding result in experiment [2] is reported as “no binding”.
